Values after ≈ are worked out from the molar mass of the structure shown. Active and inactive are the calls of the source. No cut-off for these calls is given here.
Tests used:
[1] = system: Abutilon theophrasti; experiment: Post-emergence herbicidal activity against Abutilon theophrasti (velvetleaf) assessed as injury at 15 g/ha applied at 15 days post-sowing measured after 15 days relative to control; assay type: functional
[2] = target: T1, Putative protoporphyrinogen IX oxidase (Cucumis sativus) (UniProt C6L817); experiment: Inhibition of protoporphyrin oxidase in Cucumis sativus (cucumber) cotyledon disc assessed as light-dependent membrane damage at 10 uM incubated for 20 hr in dark followed by 8 hr in presence of light measured as electrolyte leakage relative to control
T1 sequence (whole entry): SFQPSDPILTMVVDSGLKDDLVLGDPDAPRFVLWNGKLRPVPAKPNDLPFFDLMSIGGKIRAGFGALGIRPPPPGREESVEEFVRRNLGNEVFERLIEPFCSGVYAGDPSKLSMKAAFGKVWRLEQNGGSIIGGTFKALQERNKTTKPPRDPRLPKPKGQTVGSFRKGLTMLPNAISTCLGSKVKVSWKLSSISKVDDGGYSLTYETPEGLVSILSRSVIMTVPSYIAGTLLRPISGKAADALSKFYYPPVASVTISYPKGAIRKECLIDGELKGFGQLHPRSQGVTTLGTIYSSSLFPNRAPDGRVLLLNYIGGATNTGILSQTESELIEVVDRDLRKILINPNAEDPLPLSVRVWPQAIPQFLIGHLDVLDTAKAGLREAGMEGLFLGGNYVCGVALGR

[3] = system: Sorghum bicolor; experiment: Pre-emergence herbicidal activity against Sorghum bicolor assessed as injury at 150 g/ha applied at 24 hr post-sowing measured after 28 days relative to control; assay type: functional
[4] = system: Abutilon theophrasti; experiment: Pre-emergence herbicidal activity against Abutilon theophrasti (velvetleaf) assessed as injury at 150 g/ha applied at 24 hr post-sowing measured after 28 days relative to control; assay type: functional
[5] = system: Chenopodium album; experiment: Post-emergence herbicidal activity against Chenopodium album assessed as injury at 50 g/ha applied at 15 days post-sowing measured after 15 days relative to control; assay type: functional
[6] = system: Glycine max; experiment: Phytotoxicity against Glycine max (soybean) assessed as injury at 150 g/ha applied as pre-emergent treatment at 24 hr post-sowing measured after 28 days relative to control; assay type: organism-based; conditions: in vivo, other, 672 h
[7] = system: Avena fatua; experiment: Post-emergence herbicidal activity against Avena fatua assessed as injury at 15 g/ha applied at 15 days post-sowing measured after 15 days relative to control; assay type: functional
[8] = system: Echinochloa crus-galli; experiment: Pre-emergence herbicidal activity against Echinochloa crus-galli (barnyard grass) assessed as injury at 150 g/ha applied at 24 hr post-sowing measured after 28 days relative to control; assay type: functional
[9] = system: Beta vulgaris; experiment: Phytotoxicity against Beta vulgaris assessed as injury at 50 g/ha applied as post-emergent treatment at 15 days post-sowing measured after 15 days relative to control; assay type: organism-based; conditions: in vivo, other, 360 h
[10] = system: Setaria viridis; experiment: Pre-emergence herbicidal activity against Setaria viridis (green foxtail) assessed as injury at 50 g/ha applied at 24 hr post-sowing measured after 28 days relative to control; assay type: functional
[11] = system: Alopecurus myosuroides; experiment: Post-emergence herbicidal activity against Alopecurus myosuroides assessed as injury at 50 g/ha applied at 15 days post-sowing measured after 15 days relative to control; assay type: functional
[12] = Aqueous solubility of the compound; assay type: physicochemical; conditions: water
[13] = system: Portulaca oleracea; experiment: Post-emergence herbicidal activity against Portulaca oleracea assessed as injury at 50 g/ha applied at 15 days post-sowing measured after 15 days relative to control; assay type: functional
[14] = system: Persicaria maculosa; experiment: Pre-emergence herbicidal activity against Persicaria maculosa assessed as injury at 50 g/ha applied at 24 hr post-sowing measured after 28 days relative to control; assay type: functional
[15] = system: Portulaca oleracea; experiment: Pre-emergence herbicidal activity against Portulaca oleracea assessed as injury at 150 g/ha applied at 24 hr post-sowing measured after 28 days relative to control; assay type: functional
[16] = system: Stellaria media; experiment: Post-emergence herbicidal activity against Stellaria media assessed as injury at 15 g/ha applied at 15 days post-sowing measured after 15 days relative to control; assay type: functional
[17] = system: Gossypium hirsutum; experiment: Phytotoxicity against Gossypium hirsutum (cotton) assessed as injury at 50 g/ha applied as post-emergent treatment at 15 days post-sowing measured after 15 days relative to control; assay type: organism-based; conditions: in vivo, other, 360 h
[18] = system: Amaranthus retroflexus; experiment: Post-emergence herbicidal activity against Amaranthus retroflexus assessed as injury at 50 g/ha applied at 15 days post-sowing measured after 15 days relative to control; assay type: functional
[19] = system: Matricaria chamomilla; experiment: Pre-emergence herbicidal activity against Matricaria chamomilla assessed as injury at 50 g/ha applied at 24 hr post-sowing measured after 28 days relative to control; assay type: functional
[20] = system: Sida spinosa; experiment: Post-emergence herbicidal activity against Sida spinosa assessed as injury at 50 g/ha applied at 15 days post-sowing measured after 15 days relative to control; assay type: functional
[21] = system: Alopecurus myosuroides; experiment: Post-emergence herbicidal activity against Alopecurus myosuroides assessed as injury at 150 g/ha applied at 15 days post-sowing measured after 15 days relative to control; assay type: functional
[22] = system: Cucumis sativus; experiment: Induction of photobleaching in Cucumis sativus (cucumber) cotyledon disc at 1 to 100 uM incubated for 20 hr in dark followed by 8 hr in presence of light; assay type: functional
[23] = system: Setaria viridis; experiment: Post-emergence herbicidal activity against Setaria viridis (green foxtail) assessed as injury at 150 g/ha applied at 15 days post-sowing measured after 15 days relative to control; assay type: functional
[24] = system: Papaver rhoeas; experiment: Pre-emergence herbicidal activity against Papaver rhoeas assessed as injury at 150 g/ha applied at 24 hr post-sowing measured after 28 days relative to control; assay type: functional
[25] = system: Solanum nigrum; experiment: Post-emergence herbicidal activity against Solanum nigrum (black nightshade) assessed as injury at 50 g/ha applied at 15 days post-sowing measured after 15 days relative to control; assay type: functional
[26] = system: Setaria viridis; experiment: Post-emergence herbicidal activity against Setaria viridis (green foxtail) assessed as injury at 50 g/ha applied at 15 days post-sowing measured after 15 days relative to control; assay type: functional
[27] = system: Stellaria media; experiment: Post-emergence herbicidal activity against Stellaria media assessed as injury at 150 g/ha applied at 15 days post-sowing measured after 15 days relative to control; assay type: functional
[28] = system: Beta vulgaris; experiment: Phytotoxicity against Beta vulgaris assessed as injury at 150 g/ha applied as pre-emergent treatment at 24 hr post-sowing measured after 28 days relative to control; assay type: organism-based; conditions: in vivo, other, 672 h
[29] = system: Portulaca oleracea; experiment: Pre-emergence herbicidal activity against Portulaca oleracea assessed as injury at 50 g/ha applied at 24 hr post-sowing measured after 28 days relative to control; assay type: functional
[30] = system: Alopecurus myosuroides; experiment: Pre-emergence herbicidal activity against Alopecurus myosuroides assessed as injury at 50 g/ha applied at 24 hr post-sowing measured after 28 days relative to control; assay type: functional
[31] = system: Chenopodium album; experiment: Post-emergence herbicidal activity against Chenopodium album assessed as injury at 5 g/ha applied at 15 days post-sowing measured after 15 days relative to control; assay type: functional
[32] = system: Solanum nigrum; experiment: Post-emergence herbicidal activity against Solanum nigrum (black nightshade) assessed as injury at 150 g/ha applied at 15 days post-sowing measured after 15 days relative to control; assay type: functional
[33] = system: Sida spinosa; experiment: Pre-emergence herbicidal activity against Sida spinosa assessed as injury at 150 g/ha applied at 24 hr post-sowing measured after 28 days relative to control; assay type: functional

C#CCOc1cc(-n2nc(C(C)(C)C)sc2=O)c(Cl)cc1Cl
Activity [1]: 30% | inhibition [2]: Active | Activity [3]: 50% | Activity [4]: 0% | Activity [5]: 90% | Activity [6]: 0% | Activity [7]: 0% | Activity [8]: 70% | Activity [9]: 50% | Activity [10]: 30% | Activity [11]: 30% | solubility [12]: 1.1 µg/mL (≈ 3.08 µM) | Activity [13]: 90% | Activity [14]: 0% | Activity [15]: 90% | Activity [16]: 0% | Activity [17]: 30% | Activity [18]: 50% | Activity [19]: 0% | Activity [20]: 50% | Activity [21]: 70% | Activity [22]: inactive | Activity [23]: 70% | Activity [24]: 90% | Activity [25]: 90% | Activity [26]: 10% | Activity [27]: 0% | Activity [28]: 10% | Activity [29]: 70% | Activity [30]: 10% | Activity [31]: 10% | Activity [32]: 90% | Activity [33]: 0%
